The test system of this data set is CCRIS mutagenicity, Ames/micronucleus/aberration tests. Briefly: CCRIS mutagenicity studies.

Active and inactive are the calls of the source. How the calls were made is not given here.

With `C=C1C[C@@]23CC[C@H]4[C@@](C)(CCC[C@@]4(C)C(=O)O[C@@H]4O[C@H](CO)[C@@H](O)[C@H](O)[C@H]4O)[C@@H]2CC[C@]1(O[C@@H]1O[C@H](CO)[C@@H](O)[C@H](O)[C@H]1O[C@@H]1O[C@H](CO)[C@@H](O)[C@H](O)[C@H]1O)C3`, the mutagenic call by setting is: (Test System: AMES SALMONELLA TYPHIMURIUM, Strain/Indicator: TA97, Metabolic Activation: NONE, Method: PREINCUBATION) “inactive; negative”; (Test System: AMES SALMONELLA TYPHIMURIUM, Strain/Indicator: TA97, Metabolic Activation: RAT, LIVER, S-9, PCB, Method: PREINCUBATION) “inactive; negative”; (Test System: AMES SALMONELLA TYPHIMURIUM, Strain/Indicator: TA98, Metabolic Activation: RAT, LIVER, S-9, PCB, Method: PREINCUBATION) “inactive; negative”; (Test System: AMES SALMONELLA TYPHIMURIUM, Strain/Indicator: TA98, Metabolic Activation: RAT, LIVER, S-9, SODIUM PHENOBARBITAL AND 5,6-BENZOFLAVONE, Method: PREINCUBATION) “active; positive”; (Test System: AMES SALMONELLA TYPHIMURIUM, Strain/Indicator: TA100, Metabolic Activation: NONE, Method: PREINCUBATION) “inactive; negative”; (Test System: AMES SALMONELLA TYPHIMURIUM, Strain/Indicator: TA100, Metabolic Activation: RAT, LIVER, S-9, PCB, Method: PREINCUBATION) “inactive; negative”. In addition, the mutagenic call by setting is: (Test System: AMES SALMONELLA TYPHIMURIUM, Strain/Indicator: TA100, Metabolic Activation: RAT, LIVER, S-9, SODIUM PHENOBARBITAL AND 5,6-BENZOFLAVONE, Method: PREINCUBATION) “inactive; negative”; (Test System: AMES SALMONELLA TYPHIMURIUM, Strain/Indicator: TA102, Metabolic Activation: NONE, Method: PREINCUBATION) “inactive; negative”; (Test System: AMES SALMONELLA TYPHIMURIUM, Strain/Indicator: TA102, Metabolic Activation: RAT, LIVER, S-9, PCB, Method: PREINCUBATION) “inactive; negative”; (Test System: AMES SALMONELLA TYPHIMURIUM, Strain/Indicator: TA104, Metabolic Activation: NONE, Method: PREINCUBATION) “inactive; negative”; (Test System: AMES SALMONELLA TYPHIMURIUM, Strain/Indicator: TA104, Metabolic Activation: RAT, LIVER, S-9, PCB, Method: PREINCUBATION) “inactive; negative”; (Test System: AMES SALMONELLA TYPHIMURIUM, Strain/Indicator: TM677, Metabolic Activation: RAT, LIVER, S-9, AROCLOR 1254, Method: PREINCUBATION) “inactive; negative”.

With `c1ccc2c(c1)ccc1ncccc12`, the mutagenic call is, setting by setting: (End Point: IN VITRO CHROMOSOMAL ABERRATIONS, Test System: CHL CELLS, Metabolic Activation: RAT, LIVER, S-9, SODIUM PHENOBARBITAL AND 5,6-BENZOFLAVONE) “active; positive (structural changes)”; (End Point: IN VITRO MICRONUCLEUS, Test System: CHL/IU CELLS, Metabolic Activation: NONE) “active; positive”; (Test System: AMES SALMONELLA TYPHIMURIUM, Strain/Indicator: TA98, Metabolic Activation: RAT, LIVER, S-9, AROCLOR 1254, Method: STANDARD PLATE) “active; positive”; (Test System: AMES SALMONELLA TYPHIMURIUM, Strain/Indicator: TA100, Metabolic Activation: RAT, LIVER, S-9, AROCLOR 1254, Method: PREINCUBATION) “active; positive”; (Test System: AMES SALMONELLA TYPHIMURIUM, Strain/Indicator: TA100, Metabolic Activation: RAT, LIVER, S-9, AROCLOR 1254, Method: STANDARD PLATE) “active; positive”; (Test System: AMES SALMONELLA TYPHIMURIUM, Strain/Indicator: TA100, Metabolic Activation: RAT, LIVER, S-9, PHENOBARBITAL AND 5,6-BENZOFLAVONE, Method: PREINCUBATION) “active; positive”.
